Measurements: paper PMC7544826 (Communications Biology, 2020)

Assays:
[1] = system: adenosine receptors; conditions: through the adenosine receptors; cited from earlier work
[2] = system: Wnt3a-dependent TCF/LEF activation; test: TOP-FLASH luciferase assay without the addition of Notum (control); assay type: cell-based; conditions: concentrations up to 1 mM, no Notum added
Description: . OPTS is a common lipase substrate with an octanoyl lipid linked to a fluorescent moiety. It is not a natural Notum substrate; however, it can be used to quantify the enzymatic activity of purified Notum protein[23],[25],[28]. […]. […]. […]. The stable HEK293 STF cell line[31] carrying the Super Top Flash firefly luciferase reporter was split into 96-well plates and transfected 24 h later with a constitutive Renilla luciferase plasmid (pRL-TK, Promega) at 20 ng DNA per well using Lipofectamine 2000 (Life Technologies, UK). The media were replaced with test media 16 h later. […] The firefly and Renilla luciferase activities were measured 24 h later with Dual-Glo luciferase reporter assay system (Promega, Madison, WI) using an Ascent Lunimoskan luminometer (Labsystems). The firefly luciferase activity was normalized to Renilla luciferase activity (relative light unit, RLU). Luciferase reporter assays were performed in triplicate.
Supplementary Figure 1. […].

Cn1c(=O)c2c(ncn2C)n(C)c1=O [caffeine, 1,3,7-trimethylxanthine]
Concentration at which CNS stimulating effects are apparent [1]: 2.5 µM
Effect on Wnt3a-induced luciferase activity without Notum [2]: did not affect luciferase activity
